The results in this text go back to patent publication US20170226560A1, “GOLD NANOPARTICLE-BASED HOMOGENEOUS COLORIMETRIC DIAGNOSTIC ASSAY FOR THE DETECTION OF PROTEASES AND PROTEASE INHIBITORS” (IMRA America, Inc., priority 2014, published 2017).

Ends that are not written are not given here.

The assay deals with trypsin. In words: Colloidal gold nanoparticle-based colorimetric assay for trypsin (hydrolytic cleavage of peptide substrate). To be noted: 1000 nM peptide substrate, trypsin 200 pM, 20° C. The class given is biochemical. As for the experimental part: Based on the design criteria for the peptide substrate mentioned above, a sequence of amino acids in the peptide substrate of SEQ ID NO: 1 Lys-Lys-Gly-Phe-Pro-Arg-Gly-Gly-Asp-Cys was used in an assay method patterned after FIG. 1a. Unless noted otherwise, all incubations and reactions reported in the present specification were conducted at 20° C. The final reaction volume in all experiments described in the present specification, unless noted otherwise, was 500 microliters and the gold nanoparticle concentration was 1 nM. […] Thus, in all of the described experiments the aggregation state of any gold nanoparticle solution could be measured after 30 minutes or less. […] All of these can be evaluated using the present inventive assay methods. […]
After confirming that the peptide substrate SEQ ID NO: 1 Lys-Lys-Gly-Phe-Pro-Arg-Gly-Gly-Asp-Cys did induce the aggregation of negative surface charged gold nanoparticles, we carried out another experiment of examining the ultraviolet-visible spectra of solutions of colloidal gold nanoparticles after they were added to solutions of peptide substrates that had been pre-exposed for different time periods of from 0 minutes (min) to 60 min to trypsin. […] The absorbance spectrum shifts back to a maximum at 520 nm±5 nm, non-aggregated nanoparticles, as the pre-exposure time increases. […]

Consider “KKGFPRGGDC [SEQ ID NO: 1, peptide substrate cleaved by trypsin; intact peptide aggregates negatively charged gold nanoparticles]”, for which the “time for complete hydrolytic cleavage of the peptide substrate by trypsin” value is on record as “more than 60 min”.
